From patent US12336994B2, “Alpha polyglutamated tetrahydrofolates and uses thereof” (L.E.A.F. HOLDINGS GROUP LLC, priority 2018, dated 2025)

How the values were obtained:
[1] = test system: NCI H2342 non-small cell lung cancer (NSCLC), adenocarcinoma subtype; experiment: CellTiter-Glo (CTG) luminescent cell viability assay, NCI H2342; assay type: cell-based, Human; conditions: NCI H2342, 48 hours of treatment
Description: (§1) Luciferase luminescence were recorded for each well.

HT-29 (colon cancer) = experiment: CellTiter-Glo (CTG) luminescent cell viability assay, HT-29; assay type: cell-based, Human; conditions: HT-29, 48 hours
Description: as §1

AML12 liver cells = experiment: Toxicity on AML12 non-cancerous liver cells; assay type: cell-based; conditions: all doses studied (16 nM to 128 nM), 48 hours
Description: (§2) Methodologies used for cell line AML12 (non-cancerous liver cells) and CCD841 (non-cancerous colon epithelial cells) are similar to the methods used for cancer cells.

[2] = test system: CCD841 colon epithelium cells; experiment: Toxicity on CCD841 non-cancerous colon epithelial cells; assay type: cell-based; conditions: all concentrations tested (16 nM, 32 nM, 64 nM, 128 nM), 48 hours
Description: as §2

| SMILES | potency (cytotoxic activity, dose response) compared among test articles and pemetrexed ([1]; listed as free L gamma G6) | potency (cytotoxic activity, dose response) compared among test articles and pemetrexed ([1]; listed as free pemetrexed gG6) | potency (cytotoxic activity, dose response) compared among test articles and pemetrexed (HT-29 (colon cancer); listed as free L gamma G6) | potency (cytotoxic activity, dose response) compared among test articles and pemetrexed (HT-29 (colon cancer); listed as free pemetrexed gG6) | reduction in the AML12 liver cell counts (AML12 liver cells) | decrease in the number of CCD841 colon epithelium cells [2] [%] |
| --- | --- | --- | --- | --- | --- | --- |
| Nc1nc2[nH]cc(CCc3ccc(C(=O)N[C@@H](CCC(=O)N[C@@H](CCC(=O)N[C@@H](CCC(=O)N[C@@H](CCC(=O)N[C@@H](CCC(=O)N[C@@H](CCC(=O)O)C(=O)O)C(=O)O)C(=O)O)C(=O)O)C(=O)O)C(=O)O)cc3)c2c(=O)[nH]1 [gG6, free pemetrexed L-gamma hexaglutamate] | lowest potency | least potent | lowest potency | least potent | – | – |
| Nc1nc2[nH]cc(CCc3ccc(C(=O)N[C@@H](CCC(=O)O)C(=O)O)cc3)c2c(=O)[nH]1 [pemetrexed] | – | – | – | – | approximately 40% | ≥ 50 |
